# Assay results from patent publication US20120015925A1, “NOVEL BENZOTHIAZEPINE AND BENZOTHIEPINE COMPOUNDS” (ASAHI KASEI PHARMA CORPORATION, priority 2004, published 2012).
# Molecular target: T1, human IBAT (Homo sapiens, UniProt Q12908)
# T1 sequence (Q12908 1-348): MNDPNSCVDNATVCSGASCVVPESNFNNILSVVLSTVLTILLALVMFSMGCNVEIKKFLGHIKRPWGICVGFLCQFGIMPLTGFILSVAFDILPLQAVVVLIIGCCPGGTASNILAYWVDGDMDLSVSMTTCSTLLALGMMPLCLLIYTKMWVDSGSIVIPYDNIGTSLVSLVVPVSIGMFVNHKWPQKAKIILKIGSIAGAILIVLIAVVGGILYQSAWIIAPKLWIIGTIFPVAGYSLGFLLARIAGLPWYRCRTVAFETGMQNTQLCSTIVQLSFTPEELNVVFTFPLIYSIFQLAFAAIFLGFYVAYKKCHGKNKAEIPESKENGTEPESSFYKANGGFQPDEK
# Assay: In vitro assay using Cos 7 cells, transiently expressed human IBAT
# Assay type: cell-based
# Settings: [3H]-taurocholate 8 μM uptake, 37° C., 60 minutes
# Description: In the present Test Example, an in vitro assay of compounds using Cos 7 cells as to inhibitory activity on transiently expressed human IBAT or rat IBAT transporter was performed according to the method described in Am. J. Physiol., 274, G157-169.
# That is, […] cells/well of Cos 7 cells were seeded in a 24-well plate, and after one day, the cells were transfected with 0.3 μg/well of cDNA of human IBAT or rat IBAT using FuGENE6 (supplied from Roche). After culturing for one day after the transfection, the cells were washed once with the assay buffer, i.e., Hanks buffer containing 25 mM glucose and 10 mM HEPES (pH 7.4). The assay buffer was then replaced with the assay buffer containing the test compound. [^3H]-Taurocholate at a final concentration of 8 μM was added thereto and incubated at 37° C. for 60 minutes so that [^3H]-taurocholate was taken into Cos 7 cells by the action of human IBAT or rat IBAT. The cells were washed twice with the assay buffer containing 1 mM taurocholate, and subsequently lysed with 0.2 M NaOH to stop the reaction. The cell lysate was added to 4 mL of liquid scintillation cocktail, which was then thoroughly vortexed. Then the radioactivity was measured using the liquid scintillation counter.
row,Compound,IC50
1,CCCCC1(CCCC)CS(=O)(=O)c2ccc(N(C)C)cc2C(c2cccc(NC(=S)Nc3ccc(C[n+]4ccc(C)c(C)c4)cc3)c2)N1 (stereo not drawn) [EXAMPLE 3727],0.066 µM
2,CCCCC1(CCCC)CS(=O)(=O)c2ccc(N(C)C)cc2C(c2cccc(NC(=S)Nc3ccc(C[n+]4cc(C)cc(C)c4)cc3)c2)N1 (stereo not drawn) [EXAMPLE 3729],0.088 µM
3,CCCCC1(CCCC)CS(=O)(=O)c2ccc(N(C)C)cc2C(c2cccc(NC(=S)Nc3ccc(C[n+]4ccc(CCCO)cc4)cc3)c2)N1 (stereo not drawn) [EXAMPLE 3733],0.057 µM
4,CCCCC1(CCCC)CS(=O)(=O)c2ccc(N(C)C)cc2C(c2cccc(NC(=S)Nc3ccc(C[n+]4ccc(C(C)=O)cc4)cc3)c2)N1 (stereo not drawn) [EXAMPLE 3736],0.05 µM
5,CCCCCCOC(=O)c1ccc[n+](Cc2ccc(NC(=S)Nc3cccc(C4NC(CCCC)(CCCC)CS(=O)(=O)c5ccc(N(C)C)cc54)c3)cc2)c1 (stereo not drawn) [EXAMPLE 3750],0.075 µM
6,CCCCC1(CCCC)CS(=O)(=O)c2ccc(N(C)C)cc2C(c2cccc(NC(=S)Nc3ccc(C[n+]4ccccc4C)cc3)c2)N1 (stereo not drawn) [EXAMPLE 5407],0.052 µM
7,CCCCC1(CCCC)CS(=O)(=O)c2ccc(N(C)C)cc2C(c2cccc(NC(=S)Nc3ccc(C[n+]4c(C)cc(C)cc4C)cc3)c2)N1 (stereo not drawn) [EXAMPLE 5409],0.042 µM
8,CCCCC1(CCCC)CS(=O)(=O)c2ccc(N(C)C)cc2C(c2cccc(NC(=S)Nc3ccc(C[n+]4ccc(C(c5ccccc5)c5ccccc5)cc4)cc3)c2)N1 (stereo not drawn) [EXAMPLE 5410],0.1 µM
9,CCCCC1(CCCC)CS(=O)(=O)c2ccc(N(C)C)cc2C(c2cccc(NC(=S)Nc3ccc(C[n+]4cccc(F)c4)cc3)c2)N1 (stereo not drawn) [EXAMPLE 5416],0.077 µM
10,CCCCC1(CCCC)CS(=O)(=O)c2ccc(N(C)C)cc2C(c2cccc(NC(=S)Nc3ccc(C[n+]4cccc(Cl)c4)cc3)c2)N1 (stereo not drawn) [EXAMPLE 5418],0.069 µM
11,CCCCC1(CCCC)CS(=O)(=O)c2ccc(N(C)C)cc2C(c2cccc(NC(=S)Nc3ccc(C[n+]4ccccc4CCOC(C)C)cc3)c2)N1 (stereo not drawn) [EXAMPLE 5420],0.068 µM
12,CCCCC1(CCCC)CS(=O)(=O)c2ccc(N(C)C)cc2C(c2cccc(NC(=S)Nc3ccc(C[N+]45CCC(CC4)CC5)cc3C)c2)N1 (stereo not drawn) [EXAMPLE P317],0.049 µM
13,CCCCC1(CCCC)CS(=O)(=O)c2ccc(N(C)C)cc2C(c2cccc(NC(=S)Nc3ccc(C[N+]45CCC(CC4)CC5)c(F)c3)c2)N1 (stereo not drawn) [EXAMPLE P319],0.042 µM
14,CCCCC1(CCCC)CS(=O)(=O)c2ccc(N(C)C)cc2C(c2cccc(NC(=S)Nc3ccc(C[N+]45CCC(CC4)CC5)c(Cl)c3)c2)N1 (stereo not drawn) [EXAMPLE P321],0.045 µM
15,CCCCC1(CCCC)CS(=O)(=O)c2ccc(N(C)C)cc2C(c2cccc(NC(=S)Nc3ccc(C[N+]45CCC(CC4)CC5)cc3Br)c2)N1 (stereo not drawn) [EXAMPLE P322],0.062 µM
16,CCCCC1(CCCC)CS(=O)(=O)c2ccc(N(C)C)cc2C(c2cccc(NC(=S)Nc3c(C)cc(C[N+]45CCC(CC4)CC5)cc3C)c2)N1 (stereo not drawn) [EXAMPLE P326],0.1 µM
17,CCCCC1(CCCC)CS(=O)(=O)c2ccc(N(C)C)cc2C(c2cccc(NC(=S)Nc3ccc(C[N+](C)(C)Cc4ccccc4)cc3Cl)c2)N1 (stereo not drawn) [EXAMPLE P332],0.046 µM
18,CCCCC1(CCCC)CS(=O)(=O)c2ccc(N(C)C)cc2C(c2cccc(NC(=S)Nc3ccc(C[N+](C)(C)Cc4ccccc4)c(Cl)c3)c2)N1 (stereo not drawn) [EXAMPLE P333],0.044 µM
19,CCCCC1(CCCC)CS(=O)(=O)c2ccc(N(C)C)cc2C(c2cccc(NC(=S)Nc3ccc(C[N+](C)(C)Cc4ccccc4)c(Br)c3)c2)N1 (stereo not drawn) [EXAMPLE P335],0.068 µM
20,CCCCC1(CCCC)CS(=O)(=O)c2ccc(N(C)C)cc2C(c2cccc(NC(=S)Nc3c(C)cc(C[N+](C)(C)Cc4ccccc4)cc3C)c2)N1 (stereo not drawn) [EXAMPLE P338],0.047 µM
21,CCCCC1(CCCC)CS(=O)(=O)c2ccc(N(C)C)cc2C(c2cccc(NC(=S)Nc3ccc(C[n+]4ccc(C(C)(C)C)cc4)cc3C)c2)N1 (stereo not drawn) [EXAMPLE P364],0.048 µM
22,CCCCC1(CCCC)CS(=O)(=O)c2ccc(N(C)C)cc2C(c2cccc(NC(=S)Nc3ccc(C[n+]4ccc(C(C)(C)C)cc4)c([N+](=O)[O-])c3)c2)N1 (stereo not drawn) [EXAMPLE P373],0.097 µM

# Results, then the molecule that gave them:
row,IC50,Compound
1,0.028 µM,CCCCC1(CCCC)CS(=O)(=O)c2ccc(N(C)C)cc2C(c2cccc(NC(=S)CCCCC[N+]34CCC(CC3)C(O)C4)c2)N1 (stereo not drawn) [EXAMPLE 3854]
2,0.037 µM,CCCCC1(CCCC)CS(=O)(=O)c2ccc(N(C)C)cc2C(c2cccc(NC(=S)Nc3ccc(C[n+]4ccc(C(C)(C)O)cc4)cc3)c2)N1 (stereo not drawn) [EXAMPLE 5412]
3,0.039 µM,CCCCC1(CCCC)CS(=O)(=O)c2ccc(N(C)C)cc2C(c2cccc(NC(=S)Nc3ccc(C[n+]4ccc(C5CCOCC5)cc4)cc3)c2)N1 (stereo not drawn) [EXAMPLE 5419]
4,0.041 µM,CCCCC1(CCCC)CS(=O)(=O)c2ccc(N(C)C)cc2C(c2cccc(NC(=S)Nc3ccc(C[N+]45CCC(CC4)CC5)cc3Cl)c2)N1 (stereo not drawn) [EXAMPLE P320]
5,0.032 µM,CCCCC1(CCCC)CS(=O)(=O)c2ccc(N(C)C)cc2C(c2cccc(NC(=S)Nc3ccc(C[N+]45CCC(CC4)CC5)c(Br)c3)c2)N1 (stereo not drawn) [EXAMPLE P323]
6,0.037 µM,CCCCC1(CCCC)CS(=O)(=O)c2ccc(N(C)C)cc2C(c2cccc(NC(=S)Nc3ccc(C[N+]45CCC(CC4)CC5)c(C(F)(F)F)c3)c2)N1 (stereo not drawn) [EXAMPLE P324]
7,0.038 µM,CCCCC1(CCCC)CS(=O)(=O)c2ccc(N(C)C)cc2C(c2cccc(NC(=S)Nc3ccc(C[N+](C)(C)Cc4ccccc4)cc3C)c2)N1 (stereo not drawn) [EXAMPLE P328]
8,0.032 µM,CCCCC1(CCCC)CS(=O)(=O)c2ccc(N(C)C)cc2C(c2cccc(NC(=S)Nc3ccc(C[N+](C)(C)Cc4ccccc4)cc3F)c2)N1 (stereo not drawn) [EXAMPLE P330]
9,0.035 µM,CCCCC1(CCCC)CS(=O)(=O)c2ccc(N(C)C)cc2C(c2cccc(NC(=S)Nc3ccc(C[N+](C)(C)Cc4ccccc4)c(F)c3)c2)N1 (stereo not drawn) [EXAMPLE P331]
10,0.037 µM,CCCCC1(CCCC)CS(=O)(=O)c2ccc(N(C)C)cc2C(c2cccc(NC(=S)Nc3ccc(C[N+](C)(C)Cc4ccccc4)cc3Br)c2)N1 (stereo not drawn) [EXAMPLE P334]
11,0.041 µM,CCCCC1(CCCC)CS(=O)(=O)c2ccc(N(C)C)cc2C(c2cccc(NC(=S)Nc3ccc(C[N+]45CCC(c6ccccc6)(CC4)CC5)c([N+](=O)[O-])c3)c2)N1 (stereo not drawn) [EXAMPLE P349]
12,0.04 µM,CCCCC1(CCCC)CS(=O)(=O)c2ccc(N(C)C)cc2C(c2cccc(NC(=S)Nc3c(C)cc(C[N+]45CCC(c6ccccc6)(CC4)CC5)cc3C)c2)N1 (stereo not drawn) [EXAMPLE P350]
13,0.023 µM,CCCCC1(CCCC)CS(=O)(=O)c2ccc(N(C)C)cc2C(c2cccc(NC(=S)Nc3ccc(C[n+]4ccc(C(C)(C)C)cc4)c(F)c3)c2)N1 (stereo not drawn) [EXAMPLE P367]
14,0.029 µM,CCCCC1(CCCC)CS(=O)(=O)c2ccc(N(C)C)cc2C(c2cccc(NC(=S)Nc3ccc(C[n+]4ccc(C(C)(C)C)cc4)cc3Cl)c2)N1 (stereo not drawn) [EXAMPLE P368]
15,0.034 µM,CCCCC1(CCCC)CS(=O)(=O)c2ccc(N(C)C)cc2C(c2cccc(NC(=S)Nc3ccc(C[n+]4ccc(C(C)(C)C)cc4)c(Cl)c3)c2)N1 (stereo not drawn) [EXAMPLE P369]
16,0.03 µM,CCCCC1(CCCC)CS(=O)(=O)c2ccc(N(C)C)cc2C(c2cccc(NC(=S)Nc3ccc(C[n+]4ccc(C(C)(C)C)cc4)cc3Br)c2)N1 (stereo not drawn) [EXAMPLE P370]
17,0.028 µM,CCCCC1(CCCC)CS(=O)(=O)c2ccc(N(C)C)cc2C(c2cccc(NC(=S)Nc3ccc(C[n+]4ccc(C(C)(C)C)cc4)c(Br)c3)c2)N1 (stereo not drawn) [EXAMPLE P371]
18,0.035 µM,CCCCC1(CCCC)CS(=O)(=O)c2ccc(N(C)C)cc2C(c2cccc(NC(=S)Nc3ccc(C[n+]4ccc(C(C)(C)C)cc4)c(C(F)(F)F)c3)c2)N1 (stereo not drawn) [EXAMPLE P372]
19,0.033 µM,CCCCC1(CCCC)CS(=O)(=O)c2ccc(N(C)C)cc2C(c2cccc(NC(=S)Nc3c(C)cc(C[n+]4ccc(C(C)(C)C)cc4)cc3C)c2)N1 (stereo not drawn) [EXAMPLE P374]
20,0.037 µM,CCCCC1(CCCC)CS(=O)(=O)c2ccc(N(C)C)cc2C(c2cccc(NC(=S)Nc3ccc(C[n+]4ccc(-c5ccccc5)cc4)cc3C)c2)N1 (stereo not drawn) [EXAMPLE P376]
21,0.034 µM,CCCCC1(CCCC)CS(=O)(=O)c2ccc(N(C)C)cc2C(c2cccc(NC(=S)Nc3ccc(C[n+]4ccc(-c5ccccc5)cc4)cc3F)c2)N1 (stereo not drawn) [EXAMPLE P378]
22,0.026 µM,CCCCC1(CCCC)CS(=O)(=O)c2ccc(N(C)C)cc2C(c2cccc(NC(=S)Nc3ccc(C[n+]4ccc(-c5ccccc5)cc4)c(F)c3)c2)N1 (stereo not drawn) [EXAMPLE P379]
23,0.018 µM,CCCCC1(CCCC)CS(=O)(=O)c2ccc(N(C)C)cc2C(c2cccc(NC(=S)Nc3ccc(C[n+]4ccc(-c5ccccc5)cc4)cc3Cl)c2)N1 (stereo not drawn) [EXAMPLE P380]
24,0.028 µM,CCCCC1(CCCC)CS(=O)(=O)c2ccc(N(C)C)cc2C(c2cccc(NC(=S)Nc3ccc(C[n+]4ccc(-c5ccccc5)cc4)c(Cl)c3)c2)N1 (stereo not drawn) [EXAMPLE P381]
25,0.028 µM,CCCCC1(CCCC)CS(=O)(=O)c2ccc(N(C)C)cc2C(c2cccc(NC(=S)Nc3ccc(C[n+]4ccc(-c5ccccc5)cc4)cc3Br)c2)N1 (stereo not drawn) [EXAMPLE P382]
26,0.026 µM,CCCCC1(CCCC)CS(=O)(=O)c2ccc(N(C)C)cc2C(c2cccc(NC(=S)Nc3ccc(C[n+]4ccc(-c5ccccc5)cc4)c(Br)c3)c2)N1 (stereo not drawn) [EXAMPLE P383]
